Measured values reported in PubChem BioAssay (NCI).
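Five compound concentrations were applied to cells in 96-well plates for 48 hours; endpoints were derived by simple linear interpolation of the resulting dose-response curve. GI50 marks 50% less growth. TGI is the concentration that stops growth completely.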

What was measured:
Assay in all cases: NCI tumour cell line growth inhibition, 48 h
OVCAR-8 ovarian = tested on: OVCAR-8 ovarian
UO-31 renal = tested on: UO-31 renal
HL-60(TB) leukemia = tested on: HL-60(TB) leukemia
HS 578T breast = tested on: HS 578T breast
A549 NSCLC = tested on: A549 NSCLC
SF-539 CNS = tested on: SF-539 CNS
SF-268 CNS = tested on: SF-268 CNS
UACC-257 melanoma = tested on: UACC-257 melanoma
OVCAR-3 ovarian = tested on: OVCAR-3 ovarian
OVCAR-4 ovarian = tested on: OVCAR-4 ovarian
NCI-H23 lung = tested on: NCI-H23 lung
TK-10 renal = tested on: TK-10 renal
OVCAR-5 ovarian = tested on: OVCAR-5 ovarian
PC-3 prostate = tested on: PC-3 prostate
RPMI-8226 leukemia = tested on: RPMI-8226 leukemia
HT29 colon = tested on: HT29 colon
SK-OV-3 ovarian = tested on: SK-OV-3 ovarian
HCT-15 colon = tested on: HCT-15 colon
MALME-3M melanoma = tested on: MALME-3M melanoma
A498 renal = tested on: A498 renal
SN12C renal = tested on: SN12C renal
NCI-H522 lung = tested on: NCI-H522 lung
MDA-MB-435 = tested on: MDA-MB-435
LOX IMVI melanoma = tested on: LOX IMVI melanoma
MCF7 breast = tested on: MCF7 breast
NCI/ADR-RES ovarian = tested on: NCI/ADR-RES ovarian
MOLT-4 leukemia = tested on: MOLT-4 leukemia
NCI-H460 lung = tested on: NCI-H460 lung

In the case of O=C(c1ccccc1)c1cc(Cl)ccc1OCCCCN1CCN(CCCCOc2ccc(Cl)cc2C(=O)c2ccccc2)CC1, the GI50 (OVCAR-8 ovarian) was 1.82 µM, the TGI (OVCAR-8 ovarian) was 3.37 µM and the GI50 (UO-31 renal) was 3.86 µM. For the same molecule, the TGI (UO-31 renal) was 15.1 µM, the GI50 (HL-60(TB) leukemia) was 2.3 µM and the TGI (HL-60(TB) leukemia) was 4.9 µM. For the same molecule, the GI50 (HS 578T breast) was 2.19 µM, the TGI (HS 578T breast) was 4.43 µM and the GI50 (A549 NSCLC) was 6.6 µM. For the same molecule, the TGI (A549 NSCLC) was 20.9 µM, the GI50 (SF-539 CNS) was 4.8 µM and the TGI (SF-539 CNS) was 15.6 µM. It also gave a GI50 (SF-268 CNS) of 7.03 µM, a TGI (SF-268 CNS) of 23.8 µM and a GI50 (UACC-257 melanoma) of 3.07 µM. The TGI (UACC-257 melanoma) was 7.57 µM, the GI50 (OVCAR-3 ovarian) was 2.36 µM and the TGI (OVCAR-3 ovarian) was 5.78 µM. It also gave a GI50 (OVCAR-4 ovarian) of 6.63 µM, a TGI (OVCAR-4 ovarian) of 20.5 µM and a GI50 (NCI-H23 lung) of 4.73 µM. It also gave a TGI (NCI-H23 lung) of 18.3 µM, a GI50 (TK-10 renal) of 4.26 µM and a TGI (TK-10 renal) of 17 µM. It also gave a GI50 (OVCAR-5 ovarian) of 17.9 µM, a TGI (OVCAR-5 ovarian) of 48.1 µM and a GI50 (PC-3 prostate) of 3.59 µM. The TGI (PC-3 prostate) was 13.5 µM, the GI50 (RPMI-8226 leukemia) was 1.16 µM and the TGI (RPMI-8226 leukemia) was 2.8 µM. It also gave a GI50 (HT29 colon) of 2.59 µM, a TGI (HT29 colon) of 7.66 µM and a GI50 (SK-OV-3 ovarian) of 17.1 µM. The TGI (SK-OV-3 ovarian) was 31.9 µM, the GI50 (HCT-15 colon) was 2.1 µM and the TGI (HCT-15 colon) was 4.27 µM. The GI50 (MALME-3M melanoma) was 1.61 µM, the TGI (MALME-3M melanoma) was 3.77 µM and the GI50 (A498 renal) was 15.2 µM. The TGI (A498 renal) was 28.6 µM, the GI50 (SN12C renal) was 4.48 µM and the TGI (SN12C renal) was 18 µM. It also gave a GI50 (NCI-H522 lung) of 2.09 µM, a TGI (NCI-H522 lung) of 3.83 µM and a GI50 (MDA-MB-435) of 3.65 µM. It also gave a TGI (MDA-MB-435) of 11.9 µM, a GI50 (LOX IMVI melanoma) of 1.73 µM and a TGI (LOX IMVI melanoma) of 3.21 µM. It also gave a GI50 (MCF7 breast) of 1.98 µM, a TGI (MCF7 breast) of 4.83 µM and a GI50 (NCI/ADR-RES ovarian) of 2.93 µM. For the same molecule, the TGI (NCI/ADR-RES ovarian) was 12 µM, the GI50 (MOLT-4 leukemia) was 3.3 µM and the TGI (MOLT-4 leukemia) was 7.5 µM. It also gave a GI50 (NCI-H460 lung) of 2.17 µM and a TGI (NCI-H460 lung) of 4.87 µM.
